Test results as given in ChEMBL document CHEMBL3085750, “Discovery of 2-methylpyridine-based biaryl amides as γ-secretase modulators for the treatment of Alzheimer's disease” (Bioorg Med Chem Lett, 2013).

Key:
Gamma-secretase = assay: Modulation of gamma-secretase in HEK293 cells expressing guinea pig Swedish mutant SFV-APP695sw assessed as inhibition of amyloid beta-42 production after 16 to 18 hrs by HTRF assay; type: cell-based, Homo sapiens
Cytochrome P450 3A4 = Cytochrome P450 3A4 (Homo sapiens, UniProt P08684); assay: Inhibition of CYP3A4 (unknown origin) after 5 mins; type: ADME
Cytochrome P450 3A4, sequence (P08684 whole entry): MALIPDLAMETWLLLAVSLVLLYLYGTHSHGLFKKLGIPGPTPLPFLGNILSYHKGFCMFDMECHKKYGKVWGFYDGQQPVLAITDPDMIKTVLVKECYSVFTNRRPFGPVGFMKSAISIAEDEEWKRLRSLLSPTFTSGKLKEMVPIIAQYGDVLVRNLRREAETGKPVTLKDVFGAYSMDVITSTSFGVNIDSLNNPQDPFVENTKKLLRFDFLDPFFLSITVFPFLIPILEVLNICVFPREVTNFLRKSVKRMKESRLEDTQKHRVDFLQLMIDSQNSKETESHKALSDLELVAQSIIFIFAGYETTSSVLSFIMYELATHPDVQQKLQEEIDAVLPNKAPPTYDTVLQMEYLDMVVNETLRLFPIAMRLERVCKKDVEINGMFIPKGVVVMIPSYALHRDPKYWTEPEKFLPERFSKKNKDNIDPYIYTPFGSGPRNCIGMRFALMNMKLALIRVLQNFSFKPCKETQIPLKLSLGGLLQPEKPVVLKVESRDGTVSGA

[1] = Metabolic stability in rat liver microsomes at 1 uM after 30 mins; type: ADME; settings: read-out: Stability
[2] = Ratio of drug level in brain to plasma in mouse at 10 mg/kg, po after 2 hrs; type: ADME, organism-based; set-up: dose 10 mg/kg, route oral; settings: read-out: BPR
Cytochrome P450 2D6 = Cytochrome P450 2D6 (Homo sapiens, UniProt P10635); assay: Inhibition of CYP2D6 (unknown origin) after 10 mins; type: ADME
Cytochrome P450 2D6, sequence (P10635 whole entry): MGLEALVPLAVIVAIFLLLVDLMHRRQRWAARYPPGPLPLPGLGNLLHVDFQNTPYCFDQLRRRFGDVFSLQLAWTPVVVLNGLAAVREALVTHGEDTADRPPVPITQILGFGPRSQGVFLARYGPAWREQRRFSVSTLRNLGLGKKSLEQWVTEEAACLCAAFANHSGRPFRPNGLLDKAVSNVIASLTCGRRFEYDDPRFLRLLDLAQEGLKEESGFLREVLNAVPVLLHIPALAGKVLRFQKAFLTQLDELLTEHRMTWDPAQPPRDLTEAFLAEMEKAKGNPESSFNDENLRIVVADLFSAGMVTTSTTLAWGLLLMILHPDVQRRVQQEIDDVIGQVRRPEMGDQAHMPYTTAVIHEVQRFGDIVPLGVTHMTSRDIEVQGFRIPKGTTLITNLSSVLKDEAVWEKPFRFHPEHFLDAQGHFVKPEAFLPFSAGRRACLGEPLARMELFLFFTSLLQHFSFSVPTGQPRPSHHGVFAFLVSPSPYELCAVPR

[3] = Metabolic stability in human liver microsomes at 1 uM after 30 mins; type: ADME; settings: read-out: Stability

Row | IC50 (Gamma-secretase) [µM] | SMILES | other results
1 | 0.07 | Cc1cc(-c2ccc(NC(=O)C(C)c3cccc(-c4ccc(N5CCOCC5)cc4)c3)cc2)ccn1 (stereo not given) | –
2 | > 10 | Cc1cc(-c2ccc(NC(=O)Cc3cc(C(F)(F)F)cc(C(F)(F)F)c3)nc2)ccn1 | –
3 | > 10 | Cc1cc(-c2ccc(N(C)C(=O)Cc3cc(C(F)(F)F)cc(C(F)(F)F)c3)cc2)ccn1 | –
4 | 2.75 | O=S(=O)(Nc1ccc(-c2ccncc2)cc1)c1cc(Cl)cc(Cl)c1 | IC50 (Cytochrome P450 3A4): 0.6 µM; microsomal CLint at 1 µM [1]: 85 µL/min/mg; Kp at 2 h [2]: 0.09; IC50 (Cytochrome P450 2D6): 0.2 µM; microsomal CLint at 1 µM [3]: 35 µL/min/mg
5 | 0.54 | Cc1cccc(C(C)C(=O)Nc2ccc(-c3ccnc(C)c3)cc2)c1 (stereo not given) | –
6 | > 10 | O=S(=O)(Nc1ccc(-c2ncccn2)cc1)c1cc(Cl)cc(Cl)c1 | IC50 (Cytochrome P450 3A4): 16.2 µM; microsomal CLint at 1 µM [1]: > 399 µL/min/mg; IC50 (Cytochrome P450 2D6): > 27 µM; microsomal CLint at 1 µM [3]: > 399 µL/min/mg
7 | 1.38 | Cc1cccc(C(CC(C)C)C(=O)Nc2ccc(-c3ccnc(C)c3)cc2)c1 (single isomer, unassigned; isomer 2) | –
8 | 4.06 | CCCc1cc(-c2ccc(NS(=O)(=O)c3cc(C(F)(F)F)cc(C(F)(F)F)c3)cc2)ccn1 | IC50 (Cytochrome P450 3A4): > 27 µM; microsomal CLint at 1 µM [1]: 122 µL/min/mg; IC50 (Cytochrome P450 2D6): 1.8 µM; microsomal CLint at 1 µM [3]: 270 µL/min/mg
9 | 0.16 | Cc1cc(-c2ccc(NC(=O)C(C)c3cccc(N4CCN(c5ccccc5)CC4)c3)cc2)ccn1 (stereo not given) | –
10 | 0.17 | Cc1cccc(C(CC(C)C)C(=O)Nc2ccc(-c3ccnc(C)c3)cc2)c1 (stereo in doubt; 50) | –
11 | 0.53 | COc1cc(NS(=O)(=O)c2cc(C(F)(F)F)cc(C(F)(F)F)c2)ccc1-c1ccnc(C)c1 | –
12 | 0.25 | Cc1cc(-c2ccc(NC(=O)C(C)c3cccc(-c4ccc(C#N)cc4)c3)cc2)ccn1 (stereo not given) | –
13 | 0.9 | COc1cc(NS(=O)(=O)c2ccc(Cl)c(Cl)c2)ccc1-n1cnc(C)c1 | –
14 | > 10 | Cc1cc(-c2ccc(C(=O)NC(C)c3cc(C(F)(F)F)cc(C(F)(F)F)c3)cc2)ccn1 (stereo not given) | –
15 | > 10 | Cc1cccc(C(CCCO)C(=O)Nc2ccc(-c3ccnc(C)c3)cc2)c1 (stereo not given) | –
16 | 0.14 | CC(=O)c1ccc(-c2cccc(C(C)C(=O)Nc3ccc(-c4ccnc(C)c4)cc3)c2)cc1 (stereo not given) | –
17 | 0.21 | CCc1cc(-c2ccc(NS(=O)(=O)c3cc(C(F)(F)F)cc(C(F)(F)F)c3)cc2)ccn1 | IC50 (Cytochrome P450 3A4): 12.2 µM; microsomal CLint at 1 µM [1]: 324 µL/min/mg; IC50 (Cytochrome P450 2D6): 0.7 µM; microsomal CLint at 1 µM [3]: 371 µL/min/mg
18 | 6 | Cc1cc(-c2ccc(NC(=O)C(C)c3ccccc3)cc2)ccn1 (stereo not given) | –

Row | IC50 (Gamma-secretase) [µM] | SMILES | other results
19 | 0.28 | Cc1cc(-c2ccc(NS(=O)(=O)c3cc(C(F)(F)F)cc(C(F)(F)F)c3)cc2)ccn1 | IC50 (Cytochrome P450 3A4): > 27 µM; microsomal CLint at 1 µM [1]: 290 µL/min/mg; IC50 (Cytochrome P450 2D6): 2 µM; microsomal CLint at 1 µM [3]: 399 µL/min/mg
20 | 0.66 | Cc1cc(-c2ccc(NC(=O)C(C)c3cccc(-c4ccccc4)c3)cc2)ccn1 (stereo not given) | –
21 | 1.83 | COc1cc(-c2ccnc(C)c2)ccc1NS(=O)(=O)c1cc(C(F)(F)F)cc(C(F)(F)F)c1 | IC50 (Cytochrome P450 3A4): 2.2 µM; microsomal CLint at 1 µM [1]: > 399 µL/min/mg; IC50 (Cytochrome P450 2D6): 1.9 µM; microsomal CLint at 1 µM [3]: 306 µL/min/mg
22 | 0.18 | Cc1cccc(C(CC(C)C)C(=O)Nc2ccc(-c3ccnc(C)c3)cc2)c1 (single isomer, unassigned; isomer 1) | –
23 | 2.13 | Cc1cc(-c2ccc(NC(=O)C(O)c3cc(C(F)(F)F)cc(C(F)(F)F)c3)cc2)ccn1 (stereo not given) | –
24 | 0.57 | Cc1cc(C)cc(C(C)C(=O)Nc2ccc(-c3ccnc(C)c3)cc2)c1 (stereo not given) | –
25 | 0.22 | Cc1cc(-c2ccc(NC(=O)C(C)c3cccc(-c4cccc(C#N)c4)c3)cc2)ccn1 (stereo not given) | –
26 | > 10 | Cc1cc(-c2cccc(NC(=O)Cc3cc(C(F)(F)F)cc(C(F)(F)F)c3)c2)ccn1 | –
27 | > 10 | Cc1cc(-c2ccc(NC(=O)C(C)(C)c3cc(C(F)(F)F)cc(C(F)(F)F)c3)cc2)ccn1 | –
28 | 0.18 | Cc1cc(-c2ccc(NC(=O)C(C)c3cccc(-c4ccc(NC(C)C)nc4)c3)cc2)ccn1 (stereo not given) | –
29 | 0.26 | Cc1cc(-c2ccc(NC(=O)C(C)c3cccc(-c4ccc(C(=O)N(C)C)cc4)c3)cc2)ccn1 (stereo not given) | –
30 | 1.35 | Cc1cc(-c2ccc(NC(=O)Cc3cc(C(F)(F)F)cc(C(F)(F)F)c3)cn2)ccn1 | –
31 | 2.1 | O=S(=O)(Nc1ccc(-n2ccnc2)cc1)c1cc(Cl)cc(Cl)c1 | IC50 (Cytochrome P450 3A4): 0.1 µM; microsomal CLint at 1 µM [1]: < 14 µL/min/mg; Kp at 2 h [2]: 0.07; IC50 (Cytochrome P450 2D6): 0.1 µM; microsomal CLint at 1 µM [3]: < 14 µL/min/mg
32 | > 10 | Cc1cc(-c2ccc(NC(=O)C(C)c3cccc(N4CCN(C)CC4)c3)cc2)ccn1 (stereo not given) | –
33 | 1.26 | C=Cc1cc(-c2ccc(NS(=O)(=O)c3cc(C(F)(F)F)cc(C(F)(F)F)c3)cc2)ccn1 | IC50 (Cytochrome P450 3A4): 4.5 µM; microsomal CLint at 1 µM [1]: 169 µL/min/mg; IC50 (Cytochrome P450 2D6): 0.7 µM; microsomal CLint at 1 µM [3]: 193 µL/min/mg
34 | 0.42 | COc1cc(C(=O)NCCc2ccc(Cl)cc2)ccc1-n1cnc(C)c1 | –
35 | > 10 | Cc1cc(-c2ccc(NC(=O)C(C)c3cccc(-c4ccc(C(=O)O)cc4)c3)cc2)ccn1 (stereo not given) | –
36 | 1.29 | Cc1cc(-c2ccc(NC(=O)C(C)c3cccc(-c4cccnc4)c3)cc2)ccn1 (stereo not given) | –
